For 82 compounds, LC retention time results are on record in the RepoRT retention time repository.

Structures are written as SMILES.

This data set can be described thus: HILIC, Waters ACQUITY UPLC BEH Amide, 100 × 2.1 mm, 1.7 µm; A: water + 0.125% formic acid + 10 mM ammonium formate; B: 5% water + 95% acetonitrile + 0.125% formic acid + 10 mM ammonium formate; gradient (min/%B) 0/100 2/100 7.7/70 9.5/40 10.25/30 12.75/100 17/100. Particulars: stereoisomer not certain.
For `Oc1ccc2c3c1OC1C(O)CCC4(O)C(C2)N(CC2CCC2)CCC314` (configuration not stated) [Nalbuphine], the LC retention time was determined as 5.25 min.

Regarding `Oc1ccc2c3c1OC1c4[nH]c5ccccc5c4CC4(O)C(C2)N(CC2CC2)CCC314` (configuration not stated) [Naltrindole], the LC retention time came to 4.45 min.

As to `CC12CCC3C4CCC(=O)C=C4CCC3C1CCC2O` (configuration not stated) [Nandrolone], the LC retention time is 1.06 min.

For the compound `CC1OC(OC2C(Oc3cc(O)c4c(c3)OC(c3ccc(O)cc3)CC4=O)OC(CO)C(O)C2O)C(O)C(O)C1O` (configuration not stated) [Naringin], the LC retention time came to 5.61 min.

`CC(C)C1CCC(C(=O)NC(Cc2ccccc2)C(=O)O)CC1` (configuration not stated) [Nateglinide]: the LC retention time stood at 1.3 min.

Regarding `CCc1nn(CCCN2CCN(c3cccc(Cl)c3)CC2)c(=O)n1CCOc1ccccc1` [Nefazodone], the LC retention time was determined as 1.88 min.

Regarding `Cc1c(O)cccc1C(=O)NC(CSc1ccccc1)C(O)CN1CC2CCCCC2CC1C(=O)NC(C)(C)C` (configuration not stated) [Nelfinavir], the LC retention time is 1.55 min.

With `CC(=O)OCC=C(C)CCC=C(C)C` [Nerylacetate], the LC retention time was 0.99 min.

On to `O=C(CCNNC(=O)c1ccncc1)NCc1ccccc1` [Nialamide], for which the LC retention time turned out to be 1.69 min.

Take `O=C(NCCO[N+](=O)[O-])c1cccnc1` [Nicorandil]: the LC retention time came out at 1.11 min.

`NC(=O)c1ccc[n+](C2OC(CO)C(O)C2O)c1` (configuration not stated) [Nicotinamide riboside cation]: the LC retention time worked out at 7.51 min.

`NC(=O)c1cccnc1` [Nicotinamide]: the LC retention time came to 1.7 min.

`CN1CCCC1c1cccnc1` (configuration not stated) [Nicotine]: the LC retention time was determined as 5.34 min.

`O=C(O)c1cccnc1` [Nicotinic acid]: the LC retention time amounted to 4.01 min.

Consider `O=C(O)CNC(=O)c1cccnc1` [Nicotinoylglycine], for which the LC retention time stood at 7.08 min.

For the compound `COC(=O)C1=C(C)NC(C)=C(C(=O)OC)C1c1ccccc1[N+](=O)[O-]` [Nifedipine], the LC retention time stood at 1.02 min.

Turning to `Cn1c(NCCN(CCO)CCCc2ccc([N+](=O)[O-])cc2)cc(=O)n(C)c1=O` [Nifekalant], the LC retention time was 3.21 min.

With `CN1C(=O)CN=C(c2ccccc2)c2cc([N+](=O)[O-])ccc21` [Nimetazepam], the LC retention time stood at 0.98 min.

Turning to `COCCOC(=O)C1=C(C)NC(C)=C(C(=O)OC(C)C)C1c1cccc([N+](=O)[O-])c1` (configuration not stated) [Nimodipine], the LC retention time is 0.94 min.

`CC(=O)Oc1ccccc1C(=O)Nc1ncc([N+](=O)[O-])s1` [Nitazoxanide]: the LC retention time was found to be 1 min.

As to `O=C1CN=C(c2ccccc2)c2cc([N+](=O)[O-])ccc2N1` [Nitrazepam], the LC retention time stood at 1.2 min.

`CCOC(=O)C1=C(C)NC(C)=C(C(=O)OC)C1c1cccc([N+](=O)[O-])c1` (configuration not stated) [Nitrendipine]: the LC retention time was found to be 0.95 min.

Regarding `CNC(=C[N+](=O)[O-])NCCSCc1csc(CN(C)C)n1` [Nizatidine], the LC retention time was found to be 4.65 min.

For the compound `COc1ccc(-c2cc(=O)c3c(OC)c(OC)c(OC)c(OC)c3o2)cc1OC` [Nobiletin], the LC retention time was determined as 1 min.

In the case of `CCCCC(N)C(=O)O` (configuration not stated) [Norleucine], the LC retention time amounted to 6.99 min.

Take `c1cncc(C2CCCN2)c1` (configuration not stated) [Nornicotine]: the LC retention time is 5.98 min.

Regarding `CCCC(N)C(=O)O` (configuration not stated) [Norvaline], the LC retention time worked out at 4.89 min.

Consider `COc1ccc2c(c1OC)C(=O)OC2C1c2c(cc3c(c2OC)OCO3)CCN1C` (configuration not stated) [Noscapine], for which the LC retention time worked out at 1.31 min.

With `CC(=O)OCC[C@H](N)C(=O)O` [O-Acetyl-L-homoserine], the LC retention time is 7.6 min.

`CC(=O)OCC(N)C(=O)O` (configuration not stated) [O-Acetylserine]: the LC retention time was determined as 7.67 min.

Turning to `NCCOP(=O)(O)O` [O-Phosphocolamine], the LC retention time worked out at 9.23 min.

With `NC(COP(=O)(O)O)C(=O)O` (configuration not stated) [O-Phosphoserine], the LC retention time turned out to be 9.85 min.

Take `NC(CCOC(=O)CCC(=O)O)C(=O)O` (configuration not stated) [O-Succinylhomoserine]: the LC retention time was 8.06 min.

Regarding `O=C(O)CCCCCCCCCCCCCCCCC(=O)O` [Octadecanedioic acid], the LC retention time came out at 1.24 min.

In the case of `CCCCCCCC=O` [Octanal], the LC retention time was determined as 6.98 min.

`CCCCCCCCO` [Octanol]: the LC retention time was found to be 8.47 min.

Consider `CC(NC(CCCN=C(N)N)C(=O)O)C(=O)O` (configuration not stated) [Octopine], for which the LC retention time was 10.3 min.

On to `Cc1cc2c(s1)Nc1ccccc1N=C2N1CCN(C)CC1` [Olanzapine], for which the LC retention time amounted to 4.56 min.

Turning to `CCCc1nc(C(C)(C)O)c(C(=O)O)n1Cc1ccc(-c2ccccc2-c2nn[nH]n2)cc1` [Olmesartan], the LC retention time worked out at 4.76 min.

Regarding `CN(C)CCC=C1c2ccccc2COc2ccc(CC(=O)O)cc21` [Olopatadine], the LC retention time was 4.41 min.

Turning to `COc1ccc2nc(S(=O)Cc3ncc(C)c(OC)c3C)[nH]c2c1` (configuration not stated) [Omeprazole], the LC retention time is 1.35 min.

As to `Cc1nccn1CC1CCc2c(c3ccccc3n2C)C1=O` (configuration not stated) [Ondansetron], the LC retention time came out at 2.83 min.

With `CCCCCCCCCCCC(CC1OC(=O)C1CCCCCC)OC(=O)C(CC(C)C)NC=O` (configuration not stated) [Orlistat], the LC retention time was determined as 0.89 min.

Turning to `COc1cc(C)c(Cc2cnc(N)nc2N)cc1OC` [Ormetroprim], the LC retention time is 4.19 min.

Turning to `Cc1ncc([N+](=O)[O-])n1CC(O)CCl` (configuration not stated) [Ornidazole], the LC retention time was 1.08 min.

Regarding `NCCCC(N)C(=O)O` (configuration not stated) [Ornithine], the LC retention time was determined as 9.6 min.

As to `Nc1ccccc1S(=O)(=O)O` [Orthanilic acid], the LC retention time came to 2.52 min.

For `CCN(CC)CC1CCCCN1CC(=O)N1c2ccccc2C(=O)Nc2cccnc21` (configuration not stated) [Otenzepad], the LC retention time stood at 2.94 min.

Take `O=C(O)CCc1nc(-c2ccccc2)c(-c2ccccc2)o1` [Oxaprozin]: the LC retention time was 1.11 min.

`O=C1Nc2ccc(Cl)cc2C(c2ccccc2)=NC1O` (configuration not stated) [Oxazepam]: the LC retention time stood at 1.37 min.

With `Clc1ccc(CON=C(Cn2ccnc2)c2ccc(Cl)cc2Cl)c(Cl)c1` [Oxiconazole], the LC retention time was found to be 1.08 min.

For the compound `COc1ccc2c3c1OC1C(=O)CCC4(O)C(C2)N(C)CCC314` (configuration not stated) [Oxycodone], the LC retention time was found to be 4.58 min.

`CN1CCC23c4c5ccc(O)c4OC2C(=O)CCC3(O)C1C5` (configuration not stated) [Oxymorphone]: the LC retention time was 5.5 min.

Turning to `CC[N+](C)(CC)CCOC(=O)C(O)(c1ccccc1)C1CCCCC1` (configuration not stated) [Oxyphenonium], the LC retention time is 2.01 min.

Consider `O=C(O)C=Cc1ccc(Cn2ccnc2)cc1` [Ozagrel], for which the LC retention time turned out to be 2.99 min.

Take `COc1ccc(C(=O)O)cc1` [P-Anisic acid]: the LC retention time was found to be 1.3 min.

As to `CCCCCCCCCCCCCCCC(=O)OC(CC(=O)[O-])C[N+](C)(C)C` (configuration not stated) [Palmitoylcarnitine cation], the LC retention time was determined as 3.23 min.

For the compound `O=C1c2cccc3c2C(CCC3)CN1C1CN2CCC1CC2` (configuration not stated) [Palonosetron], the LC retention time was found to be 4.05 min.

`CC(C)(CO)C(O)C(=O)NCCCO` (configuration not stated) [Panthenol]: the LC retention time came to 1.9 min.

With `COc1ccnc(CS(=O)c2nc3ccc(OC(F)F)cc3[nH]2)c1OC` (configuration not stated) [Pantoprazole], the LC retention time was 1.21 min.

`CC(C)(CO)C(O)C(=O)NCCC(=O)O` (configuration not stated) [Pantothenic acid]: the LC retention time worked out at 3.5 min.

Regarding `COc1ccc(Cc2nccc3cc(OC)c(OC)cc23)cc1OC` [Papaverine], the LC retention time was found to be 1.54 min.

`CCOP(=O)(OCC)Oc1ccc([N+](=O)[O-])cc1` [Paraoxon]: the LC retention time was 1.02 min.

Take `CCC(=O)NS(=O)(=O)c1ccc(-c2c(-c3ccccc3)noc2C)cc1` [Parecoxib]: the LC retention time stood at 0.98 min.

`Fc1ccc(C2CCNCC2COc2ccc3c(c2)OCO3)cc1` (configuration not stated) [Paroxetine]: the LC retention time was 3.08 min.

As for `CC1COc2c(C3(N)CC3)c(F)cc3c(=O)c(C(=O)O)cn1c23` (configuration not stated) [Pazufloxacin], the LC retention time worked out at 2.49 min.

Turning to `CCn1cc(C(=O)O)c(=O)c2cc(F)c(N3CCN(C)CC3)cc21` [Pefloxacin], the LC retention time amounted to 3.65 min.

As for `N=C1NC(=O)C(c2ccccc2)O1` (configuration not stated) [Pemoline], the LC retention time was found to be 1.39 min.

Regarding `Nc1nc2c(ncn2CCC(CO)CO)c(=O)[nH]1` [Penciclovir], the LC retention time was 6.71 min.

As for `CC(C)=CCN1CCC2(C)c3cc(O)ccc3CC1C2C` (configuration not stated) [Pentazocine], the LC retention time is 2.65 min.

As for `CC(=O)CCCCn1c(=O)c2c(ncn2C)n(C)c1=O` [Pentoxifylline], the LC retention time came out at 1.09 min.

With `CCCN1CC(CSC)CC2c3cccc4[nH]cc(c34)CC21` (configuration not stated) [Pergolide], the LC retention time was 2.41 min.

On to `O=C1C2CCCCC2C(=O)N1CCCCN1CCN(c2nsc3ccccc23)CC1` (configuration not stated) [Perospirone], for which the LC retention time was determined as 2.14 min.

On to `COc1cc(-c2[o+]c3cc(O)cc(O)c3cc2OC2OC(CO)C(O)C(O)C2O)cc(O)c1O` (configuration not stated) [Petunidin-3-glucoside], for which the LC retention time was determined as 4.47 min.

For `CC1C(c2ccccc2)OCCN1C` (configuration not stated) [Phendimetrazine], the LC retention time turned out to be 2.52 min.

Regarding `NNCCc1ccccc1` [Phenelzine], the LC retention time stood at 4.45 min.

Consider `CC(=O)OCCc1ccccc1` [Phenethylacetate], for which the LC retention time was 1.02 min.

Turning to `NCCc1ccccc1` [Phenethylamine], the LC retention time amounted to 4.87 min.

For `CC1NCCOC1c1ccccc1` (configuration not stated) [Phenmetrazine], the LC retention time was 4.04 min.

For `NC(=O)OCCCc1ccccc1` [Phenprobamate], the LC retention time came to 1.01 min.

For the compound `CC(C)(N)Cc1ccccc1` [Phentermine], the LC retention time came out at 6.23 min.

Consider `O=CCc1ccccc1` [Phenylacetaldehyde], for which the LC retention time came to 5.4 min.
